According to ChEMBL document CHEMBL1629679, “Extended-spectrum cephalosporinases in Pseudomonas aeruginosa” (2009):
Values after ≈ are worked out from the molar mass of the structure shown.

Assays:
Pseudomonas aeruginosa [1] = experiment: microbe, parasite or virus in culture; conditions: 12B
Pseudomonas aeruginosa [2] = experiment: microbe, parasite or virus in culture; format: functional; conditions: KG2505a
Pseudomonas aeruginosa [3] = experiment: microbe, parasite or virus in culture; format: functional; conditions: KG2505a; remark: listed apart in the source
Pseudomonas aeruginosa [4] = experiment: microbe, parasite or virus in culture; format: functional; conditions: KG2505a; remark: listed apart in the source
Pseudomonas aeruginosa [5] = experiment: microbe, parasite or virus in culture; format: functional; conditions: KG2505a; remark: listed apart in the source
Pseudomonas aeruginosa [6] = experiment: microbe, parasite or virus in culture; format: functional; conditions: 12B
Pseudomonas aeruginosa [7] = experiment: microbe, parasite or virus in culture; format: functional; conditions: KG2505a; remark: listed apart in the source
Pseudomonas aeruginosa [8] = experiment: microbe, parasite or virus in culture; conditions: 12B; remark: listed apart in the source
Pseudomonas aeruginosa [9] = experiment: microbe, parasite or virus in culture; conditions: 12B; remark: listed apart in the source
Pseudomonas aeruginosa [10] = experiment: microbe, parasite or virus in culture; conditions: 12B; remark: listed apart in the source
Pseudomonas aeruginosa [11] = experiment: Antimicrobial activity against AmpC overproducing Pseudomonas aeruginosa isolate Pae-beta-06 with PDC-2 variant by Etest; format: functional
Pseudomonas aeruginosa [12] = experiment: Antimicrobial activity against AmpC overproducing Pseudomonas aeruginosa isolate Pae-beta-09 with PDC-2 variant by Etest; format: functional
Pseudomonas aeruginosa [13] = experiment: Antimicrobial activity against AmpC overproducing Pseudomonas aeruginosa isolate Pae-beta-08 with PDC-2 variant by Etest; format: functional
Pseudomonas aeruginosa [14] = experiment: Antimicrobial activity against AmpC overproducing Pseudomonas aeruginosa isolate Pae-beta-03 with PDC-2 variant by Etest; format: functional
Pseudomonas aeruginosa [15] = experiment: Antimicrobial activity against AmpC overproducing Pseudomonas aeruginosa isolate Pae-beta-13 with PDC-2 variant by Etest; format: functional
Pseudomonas aeruginosa [16] = experiment: Antimicrobial activity against AmpC overproducing Pseudomonas aeruginosa isolate Pae-beta-22 with PDC-4 variant by Etest; format: functional
Pseudomonas aeruginosa [17] = experiment: Antimicrobial activity against Pseudomonas aeruginosa isolate Pae-beta-19 with PDC-3 variant by Etest; format: functional
Pseudomonas aeruginosa [18] = experiment: Antimicrobial activity against AmpC overproducing Pseudomonas aeruginosa isolate Pae-beta-28 with PDC-7 variant by Etest; format: functional
Pseudomonas aeruginosa [19] = experiment: Antimicrobial activity against AmpC overproducing Pseudomonas aeruginosa isolate Pae-beta-18 with PDC-3 variant by Etest; format: functional
Pseudomonas aeruginosa [20] = experiment: Antimicrobial activity against Pseudomonas aeruginosa isolate Pae-beta-05 with PDC-2 variant by Etest; format: functional
Pseudomonas aeruginosa [21] = experiment: Antimicrobial activity against AmpC overproducing Pseudomonas aeruginosa isolate Pae-beta-11 with PDC-2 variant by Etest; format: functional
Pseudomonas aeruginosa [22] = experiment: Antimicrobial activity against AmpC overproducing Pseudomonas aeruginosa isolate Pae-beta-32 with PDC-10 variant by Etest; format: functional
Pseudomonas aeruginosa [23] = experiment: microbe, parasite or virus in culture; conditions: isolate Pae-beta-26
Pseudomonas aeruginosa [24] = experiment: microbe, parasite or virus in culture; conditions: PAO1
Pseudomonas aeruginosa [25] = experiment: Antimicrobial activity against Pseudomonas aeruginosa isolate Pae-beta-30 with PDC-8 variant by Etest; format: functional
Pseudomonas aeruginosa [26] = experiment: Antimicrobial activity against AmpC overproducing Pseudomonas aeruginosa isolate Pae-beta-10 with PDC-2 variant by Etest; format: functional
Pseudomonas aeruginosa [27] = experiment: Antimicrobial activity against AmpC overproducing Pseudomonas aeruginosa isolate Pae-beta-15 with PDC-2 variant by Etest; format: functional
Pseudomonas aeruginosa [28] = experiment: Antimicrobial activity against AmpC overproducing Pseudomonas aeruginosa isolate Pae-beta-24 with PDC-5 variant by Etest; format: functional
Pseudomonas aeruginosa [29] = experiment: Antimicrobial activity against AmpC overproducing Pseudomonas aeruginosa isolate Pae-beta-27 with PDC-7 variant by Etest; format: functional
Pseudomonas aeruginosa [30] = experiment: Antimicrobial activity against AmpC overproducing Pseudomonas aeruginosa isolate Pae-beta-20 with PDC-4 variant by Etest; format: functional
Pseudomonas aeruginosa [31] = experiment: Antimicrobial activity against AmpC overproducing Pseudomonas aeruginosa isolate Pae-beta-21 with PDC-4 variant by Etest; format: functional
Pseudomonas aeruginosa [32] = experiment: Antimicrobial activity against AmpC overproducing Pseudomonas aeruginosa isolate Pae-beta-07 with PDC-2 variant by Etest; format: functional
Pseudomonas aeruginosa [33] = experiment: Antimicrobial activity against Pseudomonas aeruginosa isolate Pae-beta-29 with PDC-8 variant by Etest; format: functional
Pseudomonas aeruginosa [34] = experiment: Antimicrobial activity against AmpC overproducing Pseudomonas aeruginosa isolate Pae-beta-16 with PDC-3 variant by Etest; format: functional
Pseudomonas aeruginosa [35] = experiment: Antimicrobial activity against AmpC overproducing Pseudomonas aeruginosa isolate Pae-beta-12 with PDC-2 variant by Etest; format: functional
Pseudomonas aeruginosa [36] = experiment: Antimicrobial activity against AmpC overproducing Pseudomonas aeruginosa isolate Pae-beta-04 with PDC-2 variant by Etest; format: functional
Pseudomonas aeruginosa [37] = experiment: Antimicrobial activity against AmpC overproducing Pseudomonas aeruginosa isolate Pae-beta-14 with PDC-2 variant by Etest; format: functional
Pseudomonas aeruginosa [38] = experiment: Antimicrobial activity against AmpC overproducing Pseudomonas aeruginosa isolate Pae-beta-25 with PDC-6 variant by Etest; format: functional
Pseudomonas aeruginosa [39] = experiment: Antimicrobial activity against AmpC overproducing Pseudomonas aeruginosa isolate Pae-beta-17 with PDC-3 variant by Etest; format: functional
Pseudomonas aeruginosa [40] = experiment: Antimicrobial activity against Pseudomonas aeruginosa isolate Pae-beta-01 with PDC-1 variant by Etest; format: functional
Pseudomonas aeruginosa [41] = experiment: Antimicrobial activity against Pseudomonas aeruginosa isolate Pae-beta-31 with PDC-9 variant by Etest; format: functional
Pseudomonas aeruginosa [42] = experiment: Antimicrobial activity against AmpC overproducing Pseudomonas aeruginosa isolate Pae-beta-23 with PDC-5 variant by Etest; format: functional
Pseudomonas aeruginosa [43] = experiment: Antimicrobial activity against Pseudomonas aeruginosa isolate Pae-beta-02 with PDC-1 variant by Etest; format: functional

Question: Which MIC (Pseudomonas aeruginosa [1]) does the source give for `C[C@@H](O)[C@H]1C(=O)N2C(C(=O)O)=C(S[C@@H]3CN[C@H](C(=O)N(C)C)C3)[C@H](C)[C@H]12` [MEROPENEM] here?
Answer: The MIC was 2 µg/mL (≈ 5.22 µM).

Question: What about the MIC (Pseudomonas aeruginosa [2]) of the same molecule?
Answer: Its MIC is 0.12 µg/mL (≈ 0.313 µM).

Question: And the MIC (Pseudomonas aeruginosa [3])?
Answer: The MIC was 0.25 µg/mL (≈ 0.652 µM).

Question: And the MIC (Pseudomonas aeruginosa [4])?
Answer: Its MIC is 0.25 µg/mL (≈ 0.652 µM).

Question: And the MIC (Pseudomonas aeruginosa [5])?
Answer: Its MIC is 0.25 µg/mL (≈ 0.652 µM).

Question: And the MIC (Pseudomonas aeruginosa [6])?
Answer: Its MIC is 1 µg/mL (≈ 2.61 µM).

Question: What about the MIC (Pseudomonas aeruginosa [7]) of the same molecule?
Answer: The MIC was 0.25 µg/mL (≈ 0.652 µM).

Question: What about the MIC (Pseudomonas aeruginosa [8]) of the same molecule?
Answer: Its MIC is 2 µg/mL (≈ 5.22 µM).

Question: And the MIC (Pseudomonas aeruginosa [9])?
Answer: The MIC was 2 µg/mL (≈ 5.22 µM).

Question: And the MIC (Pseudomonas aeruginosa [10])?
Answer: Its MIC is 2 µg/mL (≈ 5.22 µM).

Question: Which results are given for `CC(C)(O/N=C(\C(=O)N[C@@H]1C(=O)N2C(C(=O)[O-])=C(C[n+]3ccccc3)CS[C@H]12)c1csc(N)n1)C(=O)O` [CEFTAZIDIME]?
Answer: MIC (Pseudomonas aeruginosa [11]): 16 µg/mL (≈ 29.3 µM); MIC (Pseudomonas aeruginosa [12]): 16 µg/mL (≈ 29.3 µM); MIC (Pseudomonas aeruginosa [13]): 16 µg/mL (≈ 29.3 µM); MIC (Pseudomonas aeruginosa [1]): 32 µg/mL (≈ 58.5 µM); MIC (Pseudomonas aeruginosa [2]): 4 µg/mL (≈ 7.32 µM); MIC (Pseudomonas aeruginosa [14]): 16 µg/mL (≈ 29.3 µM); MIC (Pseudomonas aeruginosa [15]): 4 µg/mL (≈ 7.32 µM); MIC (Pseudomonas aeruginosa [16]): 16 µg/mL (≈ 29.3 µM); MIC (Pseudomonas aeruginosa [17]): 8 µg/mL (≈ 14.6 µM); MIC (Pseudomonas aeruginosa [18]): 16 µg/mL (≈ 29.3 µM); MIC (Pseudomonas aeruginosa [19]): 128 µg/mL (≈ 234 µM); MIC (Pseudomonas aeruginosa [20]): 32 µg/mL (≈ 58.5 µM); MIC (Pseudomonas aeruginosa [21]): 16 µg/mL (≈ 29.3 µM); MIC (Pseudomonas aeruginosa [3]): 16 µg/mL (≈ 29.3 µM); MIC (Pseudomonas aeruginosa [22]): 32 µg/mL (≈ 58.5 µM); MIC (Pseudomonas aeruginosa [23]): 32 µg/mL (≈ 58.5 µM); MIC (Pseudomonas aeruginosa [24]): 1 µg/mL (≈ 1.83 µM); MIC (Pseudomonas aeruginosa [25]): 8 µg/mL (≈ 14.6 µM); MIC (Pseudomonas aeruginosa [26]): 16 µg/mL (≈ 29.3 µM); MIC (Pseudomonas aeruginosa [27]): 32 µg/mL (≈ 58.5 µM); MIC (Pseudomonas aeruginosa [28]): 64 µg/mL (≈ 117 µM); MIC (Pseudomonas aeruginosa [29]): 16 µg/mL (≈ 29.3 µM); MIC (Pseudomonas aeruginosa [4]): 32 µg/mL (≈ 58.5 µM); MIC (Pseudomonas aeruginosa [30]): 8 µg/mL (≈ 14.6 µM); MIC (Pseudomonas aeruginosa [31]): 32 µg/mL (≈ 58.5 µM); MIC (Pseudomonas aeruginosa [32]): 16 µg/mL (≈ 29.3 µM); MIC (Pseudomonas aeruginosa [33]): 8 µg/mL (≈ 14.6 µM); MIC (Pseudomonas aeruginosa [34]): 32 µg/mL (≈ 58.5 µM); MIC (Pseudomonas aeruginosa [35]): 16 µg/mL (≈ 29.3 µM); MIC (Pseudomonas aeruginosa [5]): 16 µg/mL (≈ 29.3 µM); MIC (Pseudomonas aeruginosa [36]): 32 µg/mL (≈ 58.5 µM); MIC (Pseudomonas aeruginosa [37]): 16 µg/mL (≈ 29.3 µM); MIC (Pseudomonas aeruginosa [38]): 32 µg/mL (≈ 58.5 µM); MIC (Pseudomonas aeruginosa [6]): 8 µg/mL (≈ 14.6 µM); MIC (Pseudomonas aeruginosa [7]): 32 µg/mL (≈ 58.5 µM); MIC (Pseudomonas aeruginosa [39]): 64 µg/mL (≈ 117 µM); MIC (Pseudomonas aeruginosa [8]): 32 µg/mL (≈ 58.5 µM); MIC (Pseudomonas aeruginosa [9]): 64 µg/mL (≈ 117 µM); MIC (Pseudomonas aeruginosa [10]): 32 µg/mL (≈ 58.5 µM); MIC (Pseudomonas aeruginosa [40]): 8 µg/mL (≈ 14.6 µM); MIC (Pseudomonas aeruginosa [41]): 32 µg/mL (≈ 58.5 µM); MIC (Pseudomonas aeruginosa [42]): 64 µg/mL (≈ 117 µM); MIC (Pseudomonas aeruginosa [43]): 8 µg/mL (≈ 14.6 µM)
